Experimental data as given in patent US11331289B2, “Antimicrobial composition” (priority 2017, dated 2022).

How the values were obtained:
[1] = tested on: S. pseudointermedius n°15 410; experiment: Time-killing curve, broth macrodilution; assay type: cell-based, Staphylococcus pseudintermedius
Experimental: (§1) The time-killing curve is used to determine the bactericidal or bacteriostatic activity of the antibimicrobial substances. Time-killing curves of Oxyclozanide against canine isolates of Staphylococcus aureus and Staphylococcus pseudintermedius were obtained using broth macrodilution method. After contact of different fixed amounts of Oxyclozanide with an inoculum, viable bacteria are counted immediately after contact and after 1, 3, 6 and 24 hours. Counting is performed on agar medium without antimicrobial substance.
(§2) Results are analyzed by plotting log10 CFU/ml versus time for each tested concentration. Bactericidal activity as defined by 99.9% killing of the inoculum is determined from time-killing curves by noting the presence of a ≥3 log10 decrease in CFU/ml.
(§3) Bacterial strains were sub-cultured twice from one cryobead on Mueller Hinton agar and incubated at 37° C. for 18-24 hours. From the second subcultures, isolated colonies were transferred into tubes containing 2 ml of Mueller Hinton Broth in order to obtain bacterial suspensions at 10^8 CFU/ml, knowing that an optical density of 0.1 at 620 nm corresponds to bacterial suspension at 10^8 CFU/ml. Then, bacterial suspensions were adjusted between 5 10^7 and 1 10^8 CFU/ml by dilution in Mueller Hinton broth.
(§4) For each concentration of Oxyclozanide to be tested, 50 μl of working solution concentrated 100× and […] of inoculum were added to 5 ml of Mueller-Hinton broth. Thus, the range of tested concentrations was from 0.125 to 8 μg/ml and the concentration of micro-organism was between 1 10^6 and 2 10^6 CFU/ml.
(§5) At the same time, a tube without Oxyclozanide was prepared: 50 μl of DMSO and 100 μl of inoculum were added to 5 ml of Mueller-Hinton broth and used as growth control. Tubes were incubated at 36° C. under agitation.
(§6) The numbers of viable bacteria were determined immediately after contact (TO) and after 1, 3, 6 and 24 h of incubation.
(§7) At each time, samples of each tube were taken and dilutions were performed in Mueller-Hinton broth. Then, dilutions were spread on Mueller Hinton agar with spiral plater. After 18 h of incubation at 36° C., counting of colonies was performed with automatic colony counter which determine the concentrations of viable bacteria. The technique employed made it possible to quantify bacterial concentrations as low as 20 CFU/ml.
(§8) Time-killing curves were plotted for each concentration of Oxyclozanide using Microsoft Excel software. The number or surviving bacteria was expressed as log10 CFU/ml. The time-killing curves of each strain represent the decrease in the viable bacteria count as a function of time for the Oxyclozanide concentrations concerned.
(§9) Bactericidal activity as defined by 99.9% killing of the inoculum is determined from time-killing curves by noting the presence of a ≥3 log10 decrease in CFU/ml.

[2] = tested on: S. pseudointermedius n°15 401; experiment: Time-killing curve, broth macrodilution; assay type: cell-based, Staphylococcus pseudintermedius
Experimental: as §1, §2, §3, §4, §5, §6, §7, §8, §9

In the case of `O=C(Nc1cc(Cl)cc(Cl)c1O)c1c(O)c(Cl)cc(Cl)c1Cl` [Oxyclozanide], the Bacteria reducing rate ([1]; 0.125 μg/ml (MIC), 1 h) is reported as 0.2 Δ log10 CFU/ml, the Bacteria reducing rate ([1]; 0.125 μg/ml (MIC), 3 h) is reported as 1.1 Δ log10 CFU/ml and the Bacteria reducing rate ([1]; 0.125 μg/ml (MIC), 6 h) is reported as 2.3 Δ log10 CFU/ml. The Bacteria reducing rate ([1]; 0.125 μg/ml (MIC), 24 h) was 2.9 Δ log10 CFU/ml, the Bacteria reducing rate ([1]; 0.25 μg/ml (2 MIC), 1 h) was 0.1 Δ log10 CFU/ml and the Bacteria reducing rate ([1]; 0.25 μg/ml (2 MIC), 3 h) was 1.1 Δ log10 CFU/ml. The Bacteria reducing rate ([1]; 0.25 μg/ml (2 MIC), 6 h) was 2.3 Δ log10 CFU/ml, the Bacteria reducing rate ([1]; 0.25 μg/ml (2 MIC), 24 h) was 1.1 Δ log10 CFU/ml and the Bacteria reducing rate ([1]; 0.5 μg/ml (4 MIC), 1 h) was 0.1 Δ log10 CFU/ml. For the same compound, the Bacteria reducing rate ([1]; 0.5 μg/ml (4 MIC), 3 h) was 1.1 Δ log10 CFU/ml, the Bacteria reducing rate ([1]; 0.5 μg/ml (4 MIC), 6 h) was 2.1 Δ log10 CFU/ml and the Bacteria reducing rate ([1]; 0.5 μg/ml (4 MIC), 24 h) was 1.1 Δ log10 CFU/ml. The Bacteria reducing rate ([1]; 1 μg/ml (8 MIC), 1 h) was 0.1 Δ log10 CFU/ml, the Bacteria reducing rate ([1]; 1 μg/ml (8 MIC), 3 h) was 0.1 Δ log10 CFU/ml and the Bacteria reducing rate ([1]; 1 μg/ml (8 MIC), 6 h) was 0.1 Δ log10 CFU/ml. For the same compound, the Bacteria reducing rate ([1]; 1 μg/ml (8 MIC), 24 h) was 0.4 Δ log10 CFU/ml, the Viable bacteria count ([1]; 1 μg/ml (8 MIC), 24 h) was 6.7 Log10 CFU/ml and the Bacteria reducing rate ([1]; 2 μg/ml (16 MIC), 1 h) was 0.0 Δ log10 CFU/ml. For the same compound, the Bacteria reducing rate ([1]; 2 μg/ml (16 MIC), 3 h) was −0.1 Δ log10 CFU/ml, the Bacteria reducing rate ([1]; 2 μg/ml (16 MIC), 6 h) was −0.9 Δ log10 CFU/ml and the Bacteria reducing rate ([1]; 2 μg/ml (16 MIC), 24 h) was −1.7 Δ log10 CFU/ml. The Viable bacteria count ([1]; 2 μg/ml (16 MIC), 24 h) was 4.6 Log10 CFU/ml, the Bacteria reducing rate ([1]; 4 μg/ml (32 MIC), 1 h) was −0.2 Δ log10 CFU/ml and the Bacteria reducing rate ([1]; 4 μg/ml (32 MIC), 3 h) was −0.1 Δ log10 CFU/ml. For the same compound, the Bacteria reducing rate ([1]; 4 μg/ml (32 MIC), 6 h) was −1.2 Δ log10 CFU/ml, the Bacteria reducing rate ([1]; 4 μg/ml (32 MIC), 24 h) was −3.9 Δ log10 CFU/ml and the Viable bacteria count ([1]; 4 μg/ml (32 MIC), 24 h) was 2.4 Log10 CFU/ml. For the same compound, the Bacteria reducing rate ([1]; 8 μg/ml (64 MIC), 1 h) was −0.2 Δ log10 CFU/ml, the Bacteria reducing rate ([1]; 8 μg/ml (64 MIC), 3 h) was −1.6 Δ log10 CFU/ml and the Viable bacteria count ([1]; 8 μg/ml (64 MIC), 3 h) was 4.7 Log10 CFU/ml. The Bacteria reducing rate ([1]; 8 μg/ml (64 MIC), 6 h) was −3.7 Δ log10 CFU/ml, the Viable bacteria count ([1]; 8 μg/ml (64 MIC), 6 h) was 2.6 Log10 CFU/ml and the Bacteria reducing rate ([1]; 8 μg/ml (64 MIC), 24 h) was −5.0 Δ log10 CFU/ml. For the same compound, the Viable bacteria count ([2]; 0.125 μg/ml (MIC), 0 h) was 5.9 Log10 CFU/ml, the Bacteria reducing rate ([2]; 0.125 μg/ml (MIC), 1 h) was 0.3 Δ log10 CFU/ml and the Bacteria reducing rate ([2]; 0.125 μg/ml (MIC), 3 h) was 1.2 Δ log10 CFU/ml. For the same compound, the Bacteria reducing rate ([2]; 0.125 μg/ml (MIC), 6 h) was 2.2 Δ log10 CFU/ml, the Bacteria reducing rate ([2]; 0.125 μg/ml (MIC), 24 h) was 2.8 Δ log10 CFU/ml and the Viable bacteria count ([2]; 0.125 μg/ml (MIC), 24 h) was 8.7 Log10 CFU/ml. For the same compound, the Viable bacteria count ([2]; 0.25 μg/ml (2 MIC), 0 h) was 6.0 Log10 CFU/ml, the Bacteria reducing rate ([2]; 0.25 μg/ml (2 MIC), 1 h) was 0.1 Δ log10 CFU/ml and the Bacteria reducing rate ([2]; 0.25 μg/ml (2 MIC), 3 h) was 0.8 Δ log10 CFU/ml. The Viable bacteria count ([2]; 0.25 μg/ml (2 MIC), 3 h) was 6.8 Log10 CFU/ml, the Bacteria reducing rate ([2]; 0.25 μg/ml (2 MIC), 6 h) was 2.2 Δ log10 CFU/ml and the Bacteria reducing rate ([2]; 0.25 μg/ml (2 MIC), 24 h) was 1.3 Δ log10 CFU/ml. The Viable bacteria count ([2]; 0.5 μg/ml (4 MIC), 0 h) was 6.0 Log10 CFU/ml, the Bacteria reducing rate ([2]; 0.5 μg/ml (4 MIC), 1 h) was 0.1 Δ log10 CFU/ml and the Bacteria reducing rate ([2]; 0.5 μg/ml (4 MIC), 3 h) was 0.4 Δ log10 CFU/ml. For the same compound, the Bacteria reducing rate ([2]; 0.5 μg/ml (4 MIC), 6 h) was 1.6 Δ log10 CFU/ml, the Bacteria reducing rate ([2]; 0.5 μg/ml (4 MIC), 24 h) was 1.4 Δ log10 CFU/ml and the Viable bacteria count ([2]; 1 μg/ml (8 MIC), 0 h) was 6.0 Log10 CFU/ml. The Bacteria reducing rate ([2]; 1 μg/ml (8 MIC), 1 h) was 0.1 Δ log10 CFU/ml, the Bacteria reducing rate ([2]; 1 μg/ml (8 MIC), 3 h) was 0.0 Δ log10 CFU/ml and the Viable bacteria count ([2]; 1 μg/ml (8 MIC), 3 h) was 6.0 Log10 CFU/ml. The Bacteria reducing rate ([2]; 1 μg/ml (8 MIC), 6 h) was 0.2 Δ log10 CFU/ml, the Bacteria reducing rate ([2]; 1 μg/ml (8 MIC), 24 h) was 0.7 Δ log10 CFU/ml and the Viable bacteria count ([2]; 1 μg/ml (8 MIC), 24 h) was 6.7 Log10 CFU/ml. For the same compound, the Viable bacteria count ([2]; 2 μg/ml (16 MIC), 0 h) was 6.0 Log10 CFU/ml, the Bacteria reducing rate ([2]; 2 μg/ml (16 MIC), 1 h) was −0.1 Δ log10 CFU/ml and the Viable bacteria count ([2]; 2 μg/ml (16 MIC), 1 h) was 5.9 Log10 CFU/ml. The Bacteria reducing rate ([2]; 2 μg/ml (16 MIC), 3 h) was −0.1 Δ log10 CFU/ml, the Viable bacteria count ([2]; 2 μg/ml (16 MIC), 3 h) was 5.9 Log10 CFU/ml and the Bacteria reducing rate ([2]; 2 μg/ml (16 MIC), 6 h) was 0.3 Δ log10 CFU/ml. The Bacteria reducing rate ([2]; 2 μg/ml (16 MIC), 24 h) was −0.1 Δ log10 CFU/ml, the Viable bacteria count ([2]; 2 μg/ml (16 MIC), 24 h) was 5.9 Log10 CFU/ml and the Viable bacteria count ([2]; 4 μg/ml (32 MIC), 0 h) was 5.9 Log10 CFU/ml. For the same compound, the Bacteria reducing rate ([2]; 4 μg/ml (32 MIC), 1 h) was 0.1 Δ log10 CFU/ml, the Viable bacteria count ([2]; 4 μg/ml (32 MIC), 1 h) was 6.0 Log10 CFU/ml and the Bacteria reducing rate ([2]; 4 μg/ml (32 MIC), 3 h) was 0.0 Δ log10 CFU/ml. For the same compound, the Viable bacteria count ([2]; 4 μg/ml (32 MIC), 3 h) was 5.9 Log10 CFU/ml, the Bacteria reducing rate ([2]; 4 μg/ml (32 MIC), 6 h) was −0.7 Δ log10 CFU/ml and the Bacteria reducing rate ([2]; 4 μg/ml (32 MIC), 24 h) was −3.4 Δ log10 CFU/ml. The Viable bacteria count ([2]; 4 μg/ml (32 MIC), 24 h) was 2.5 Log10 CFU/ml, the Viable bacteria count ([2]; 8 μg/ml (64 MIC), 0 h) was 6.0 Log10 CFU/ml and the Bacteria reducing rate ([2]; 8 μg/ml (64 MIC), 1 h) was −0.4 Δ log10 CFU/ml. The Viable bacteria count ([2]; 8 μg/ml (64 MIC), 1 h) was 5.6 Log10 CFU/ml, the Bacteria reducing rate ([2]; 8 μg/ml (64 MIC), 3 h) was −2.7 Δ log10 CFU/ml and the Viable bacteria count ([2]; 8 μg/ml (64 MIC), 3 h) was 3.3 Log10 CFU/ml. The Bacteria reducing rate ([2]; 8 μg/ml (64 MIC), 6 h) was −4.4 Δ log10 CFU/ml and the Bacteria reducing rate ([2]; 8 μg/ml (64 MIC), 24 h) was −4.7 Δ log10 CFU/ml.
